The results in this text go back to PMC13195121, “A plasmid toolbox for the easy autodisplay of recombinant proteins and its optimization” (Communications Biology, 2026).

Counter-ions that a name gives are not always drawn.

For test [1], the target named is T1, β-Gluc (β-glucosidase BglA LYTH) (Caldicellulosiruptor saccharolyticus, UniProt P10482).
T1 construct: His6 tag and fXa site
The test can be described thus: whole-cell absorbance assay at […] nm, surface-displaying E. coli. In kind it is cell-based. Particulars: 5 mM pNPG; 0.1 M Na-citrate pH 6; 55 °C.

In a further test the target is T2, laccase CotA (Heyndrickxia coagulans, UniProt A0AAN0WB15).
T2 construct: gene SB48_HM08orf01352; N-terminal His6 tag and fXa site; codon-optimized gene
T2 sequence (A0AAN0WB15 1-522): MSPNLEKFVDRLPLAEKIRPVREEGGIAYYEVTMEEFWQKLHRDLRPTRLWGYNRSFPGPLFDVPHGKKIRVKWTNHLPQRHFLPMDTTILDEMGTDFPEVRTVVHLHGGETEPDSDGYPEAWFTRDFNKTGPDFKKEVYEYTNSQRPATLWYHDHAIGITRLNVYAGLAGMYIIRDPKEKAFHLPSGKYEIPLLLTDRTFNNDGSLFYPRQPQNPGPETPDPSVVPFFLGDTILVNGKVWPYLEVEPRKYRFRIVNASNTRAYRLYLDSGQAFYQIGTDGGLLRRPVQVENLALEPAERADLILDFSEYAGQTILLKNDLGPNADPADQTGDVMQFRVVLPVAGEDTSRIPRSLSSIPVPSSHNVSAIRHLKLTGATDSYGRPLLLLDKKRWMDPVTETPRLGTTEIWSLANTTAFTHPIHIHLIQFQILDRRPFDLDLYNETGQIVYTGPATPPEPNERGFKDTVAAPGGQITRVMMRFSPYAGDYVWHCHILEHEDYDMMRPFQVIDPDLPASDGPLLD
The test can be described thus: whole-cell absorbance assay at […] nm, surface-displaying P. putida. Particulars: 0.1 M Na-acetate pH 5.6; 30 °C; cells grown with CuCl2. In kind it is cell-based.

T1 sequence (P10482 whole entry): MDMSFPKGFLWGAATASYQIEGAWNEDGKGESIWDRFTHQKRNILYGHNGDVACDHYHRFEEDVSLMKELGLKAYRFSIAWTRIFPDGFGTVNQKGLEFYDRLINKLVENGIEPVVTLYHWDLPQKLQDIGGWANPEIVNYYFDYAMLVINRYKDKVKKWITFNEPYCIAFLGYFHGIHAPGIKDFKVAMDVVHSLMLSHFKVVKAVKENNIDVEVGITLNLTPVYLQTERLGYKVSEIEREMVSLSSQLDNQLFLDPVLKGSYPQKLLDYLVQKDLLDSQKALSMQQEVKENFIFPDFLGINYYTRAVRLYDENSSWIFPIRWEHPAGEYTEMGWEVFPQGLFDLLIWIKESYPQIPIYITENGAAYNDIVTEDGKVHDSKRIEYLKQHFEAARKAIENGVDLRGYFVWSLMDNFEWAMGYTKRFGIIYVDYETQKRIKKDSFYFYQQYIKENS

Take `O=[N+]([O-])c1ccc(O[C@@H]2O[C@H](CO)[C@@H](O)[C@H](O)[C@H]2O)cc1` [4-nitrophenyl-β-D-glucopyranoside]: the “whole-cell absorbance assay at 405 nm, surface-displaying E. coli” value in test [1] is listed as “activity assay with 4-nitrophenyl-β-D-glucopyranoside (pNPG) as substrate”.

`CCn1c(=NN=c2sc3cc(S(=O)(=O)O)ccc3n2CC)sc2cc(S(=O)(=O)O)ccc21` [ABTS, 2,2’-Azino-bis [3-ethylbenzothiazoline-6-sulfonic acid]-diammonium salt]: the “whole-cell absorbance assay at 420 nm, surface-displaying P. putida” value at laccase CotA is listed as “The substrate ABTS is converted by the laccase to ABTS^•+”.
